Where no end group is shown, it is not given here.
Experiment: RP-HPLC retention time as measure of hydrophobicity
Type: physicochemical
Conditions: chromatographic, Vydac C18 300 Å 4.6 × 250 mm, 1.0 mL/min, gradient 30-100% acetonitrile/0.1% TFA, 215 nm, column 25 ± 5 °C; maximum height of peak
Protocol: Peptides were synthesized using the Fmoc SPPS methods. Briefly, the peptide LVTX-9 (AC-[…]-amide) was prepared on Rink Amide AM resin at a 0.2 mmol scale. A 4-fold excess of the Fmoc-protected amino acids was coupled with the Rink Amide AM resin using HCTU and HOBT as the activating agents in 5% NMM/DMF. After the synthesis of LVTX-9, the N-terminal Fmoc group was removed using 20% piperidine. As in the previous steps, a series of fatty acids (C12-C20) was activated in HCTU and HOBT using 5% NMM/DMF, and coupled to peptidyl resin for 2 h. Peptides were cleaved using trifluoroacetic acid (TFA)/thioanisole (TIS)/anisole (95:3:2 (v/v)) for 2.5 h, and the collected lysate was precipitated in cold diethyl ether three times. The precipitate was air-dried naturally. Next, the obtained crude products were purified using RP-HPLC (C18, 4.6 mm × 250 mm) on the basis of a 0.1% TFA/acetonitrile gradient from 30% to 100% in 46 min. Then, we collected the eluted peptides and determined the molecular mass using MALDI-TOF MS (AB, SCIEX, Waltham, MA, USA).
Figure 2 Purification and identification of five lipopeptides using RP-HPLC and MALDL-TOF MS: The purification of (A) LVTX-9-C12, (B) LVTX-9-C14, (C) LVTX-9-C16, (D) LVTX-9-C18, and (E) LVTX-9-C20 was performed using RP-HPLC (column, Vydac, C18, 300 Å, 4.6 × 250 mm). The lipopeptides were separated at a flow rate of 1.0 mL/min under a gradient of 30–100% acetonitrile/0.1% TFA. The elution of lipopeptides was monitored at 215 nm. Identification of (F) LVTX-9-C12, (G) LVTX-9-C14, (H) LVTX-9-C16, (I) LVTX-9-C18, and (J) LVTX-9-C20 by MALDI-TOF MS, respectively. The red star (*) represents the target peak. […]
Table S1. Purification gradient of peptides.
Time (min) Flow Rate (mL/min) A% B%
Wavelength: 215 nm/280 nm, column temperature: 25 ± 5 ℃, A: ddH2O (0.1% TFA), B: acetonitrile
(1 picture or pasted object on this page, not shown here)

## ASIGALIQKAIALIKAKAA-NH2 (C-terminus assumed) [LVTX-9]
  TR (retention time, RP-HPLC; indicates the hydrophobicity of the peptides): 15.21 min
